What was measured:
Assay in all cases: relative viability (nuclei count vs DMSO), 5 days (fraction); higher = more cells survive
[1] = compound: CCn1c(-c2nonc2N)nc2c(C#CC(C)(C)O)ncc(OC[C@H]3CCCNC3)c21 + Cc1nc(Nc2ncc(C(=O)Nc3c(C)cccc3Cl)s2)cc(N2CCN(CCO)CC2)n1 [Dasatinib] (partner 0.075 µM)
Summary of the method: (§1)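 Lung cancer cell lines in 1536-well plates got either a single drug or a fixed anchor-drug dose together with five library-drug doses (not always all listed) in √10 steps, by pin tool, on the day after seeding. Nuclei were counted after 5 days, and relative viability is the treated-to-vehicle ratio of nuclei counts. Values are medians of duplicate plates.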

[2] = compound: CCOC1=CC=CC=C1N=NC2=C(NN(C2=O)C3=NC(=CS3)C4=CC=CC=C4)C [BAM7] + Nc1ncn([C@H]2C[C@H](O)[C@@H](CO)O2)c(=O)n1 [Decitabine] (partner 2 µM)
Summary of the method: as §1

[3] = compound: CCn1c(-c2nonc2N)nc2c(C#CC(C)(C)O)ncc(OC[C@H]3CCCNC3)c21 + CCNC(=O)c1noc(-c2cc(C(C)C)c(O)cc2O)c1-c1ccc(CN2CCOCC2)cc1 [Luminespib] (partner 0.01 µM)
Summary of the method: as §1

[4] = compound: CCOC1=CC=CC=C1N=NC2=C(NN(C2=O)C3=NC(=CS3)C4=CC=CC=C4)C [BAM7] + CC(C)C[C@H](NC(=O)[C@H](Cc1ccccc1)NC(=O)c1cnccn1)B(O)O [Bortezomib] (partner 0.002 µM)
Summary of the method: as §1

With NCI-H1993 the relative viability ([1]; first compound 0.01 µM) was 0.759, the relative viability ([1]; first compound 0.03162 µM) was 0.531 and the relative viability ([1]; first compound 0.1 µM) was 0.603. It also gave a relative viability ([1]; first compound 0.3162 µM) of 0.473, a relative viability ([1]; first compound 1 µM) of 0.527 and a relative viability ([2]; first compound 0.5 µM) of 0.582. It also gave a relative viability ([2]; first compound 5 µM) of 0.633, a relative viability ([2]; first compound 15.81 µM) of 0.498 and a relative viability ([2]; first compound 50 µM) of 0.551. For the same cell line, the relative viability ([3]; first compound 0.01 µM) was 0.84, the relative viability ([3]; first compound 0.03162 µM) was 0.728 and the relative viability ([3]; first compound 0.1 µM) was 0.739. It also gave a relative viability ([3]; first compound 0.3162 µM) of 0.645, a relative viability ([3]; first compound 1 µM) of 0.686 and a relative viability ([4]; first compound 0.5 µM) of 0.843. The relative viability ([4]; first compound 5 µM) was 0.836, the relative viability ([4]; first compound 15.81 µM) was 0.472 and the relative viability ([4]; first compound 50 µM) was 1.09.
NCI-H2009 showed a relative viability ([1]; first compound 0.01 µM) of 0.257, a relative viability ([1]; first compound 0.03162 µM) of 0.33 and a relative viability ([1]; first compound 0.1 µM) of 0.287. The relative viability ([1]; first compound 0.3162 µM) was 0.254, the relative viability ([1]; first compound 1 µM) was 0.283 and the relative viability ([2]; first compound 0.5 µM) was 0.369. For the same cell line, the relative viability ([2]; first compound 5 µM) was 0.39, the relative viability ([2]; first compound 15.81 µM) was 0.351 and the relative viability ([2]; first compound 50 µM) was 0.418. The relative viability ([3]; first compound 0.01 µM) was 1.07, the relative viability ([3]; first compound 0.03162 µM) was 0.981 and the relative viability ([3]; first compound 0.1 µM) was 1.06. For the same cell line, the relative viability ([3]; first compound 0.3162 µM) was 0.986, the relative viability ([3]; first compound 1 µM) was 0.983 and the relative viability ([4]; first compound 0.5 µM) was 0.976. It also gave a relative viability ([4]; first compound 5 µM) of 1.29, a relative viability ([4]; first compound 15.81 µM) of 0.926 and a relative viability ([4]; first compound 50 µM) of 0.971.
For NCI-H2023, the relative viability ([1]; first compound 0.01 µM) was 0.454, the relative viability ([1]; first compound 0.03162 µM) was 0.572 and the relative viability ([1]; first compound 0.1 µM) was 0.492. It also gave a relative viability ([1]; first compound 0.3162 µM) of 0.388, a relative viability ([1]; first compound 1 µM) of 0.344 and a relative viability ([2]; first compound 0.5 µM) of 0.218. For the same cell line, the relative viability ([2]; first compound 5 µM) was 0.225, the relative viability ([2]; first compound 15.81 µM) was 0.191 and the relative viability ([2]; first compound 50 µM) was 0.246. It also gave a relative viability ([3]; first compound 0.01 µM) of 0.636, a relative viability ([3]; first compound 0.03162 µM) of 0.981 and a relative viability ([3]; first compound 0.1 µM) of 0.664. For the same cell line, the relative viability ([3]; first compound 0.3162 µM) was 0.67, the relative viability ([3]; first compound 1 µM) was 0.498 and the relative viability ([4]; first compound 0.5 µM) was 0.988. It also gave a relative viability ([4]; first compound 5 µM) of 0.905, a relative viability ([4]; first compound 15.81 µM) of 0.92 and a relative viability ([4]; first compound 50 µM) of 1.08.
With NCI-H2085 the relative viability ([1]; first compound 0.01 µM) was 0.21, the relative viability ([1]; first compound 0.03162 µM) was 0.272 and the relative viability ([1]; first compound 0.1 µM) was 0.278. For the same cell line, the relative viability ([1]; first compound 0.3162 µM) was 0.255, the relative viability ([1]; first compound 1 µM) was 0.228 and the relative viability ([2]; first compound 0.5 µM) was 0.558. For the same cell line, the relative viability ([2]; first compound 5 µM) was 0.549, the relative viability ([2]; first compound 15.81 µM) was 0.47 and the relative viability ([2]; first compound 50 µM) was 0.604. It also gave a relative viability ([3]; first compound 0.01 µM) of 0.417, a relative viability ([3]; first compound 0.03162 µM) of 0.382 and a relative viability ([3]; first compound 0.1 µM) of 0.492. It also gave a relative viability ([3]; first compound 0.3162 µM) of 0.42, a relative viability ([3]; first compound 1 µM) of 0.463 and a relative viability ([4]; first compound 0.5 µM) of 1.07. It also gave a relative viability ([4]; first compound 5 µM) of 1.12, a relative viability ([4]; first compound 15.81 µM) of 0.979 and a relative viability ([4]; first compound 50 µM) of 1.16.
With NCI-H2087 the relative viability ([1]; first compound 0.01 µM) was 0.738, the relative viability ([1]; first compound 0.03162 µM) was 0.751 and the relative viability ([1]; first compound 0.1 µM) was 0.936. The relative viability ([1]; first compound 0.3162 µM) was 0.795, the relative viability ([1]; first compound 1 µM) was 0.913 and the relative viability ([2]; first compound 0.5 µM) was 0.339. The relative viability ([2]; first compound 5 µM) was 0.289, the relative viability ([2]; first compound 15.81 µM) was 0.292 and the relative viability ([2]; first compound 50 µM) was 0.297. The relative viability ([3]; first compound 0.01 µM) was 0.128, the relative viability ([3]; first compound 0.03162 µM) was 0.154 and the relative viability ([3]; first compound 0.1 µM) was 0.165. For the same cell line, the relative viability ([3]; first compound 0.3162 µM) was 0.152, the relative viability ([3]; first compound 1 µM) was 0.163 and the relative viability ([4]; first compound 0.5 µM) was 0.892. It also gave a relative viability ([4]; first compound 5 µM) of 0.85, a relative viability ([4]; first compound 15.81 µM) of 0.843 and a relative viability ([4]; first compound 50 µM) of 0.767.
NCI-H2126 showed a relative viability ([1]; first compound 0.01 µM) of 0.587, a relative viability ([1]; first compound 0.03162 µM) of 0.468 and a relative viability ([1]; first compound 0.1 µM) of 0.597. The relative viability ([1]; first compound 0.3162 µM) was 0.579, the relative viability ([1]; first compound 1 µM) was 0.677 and the relative viability ([2]; first compound 0.5 µM) was 0.55. For the same cell line, the relative viability ([2]; first compound 5 µM) was 0.548, the relative viability ([2]; first compound 15.81 µM) was 0.509 and the relative viability ([2]; first compound 50 µM) was 0.617. For the same cell line, the relative viability ([3]; first compound 0.01 µM) was 0.85, the relative viability ([3]; first compound 0.03162 µM) was 0.914 and the relative viability ([3]; first compound 0.1 µM) was 0.892. It also gave a relative viability ([3]; first compound 0.3162 µM) of 0.859, a relative viability ([3]; first compound 1 µM) of 0.961 and a relative viability ([4]; first compound 0.5 µM) of 1.07. It also gave a relative viability ([4]; first compound 5 µM) of 1, a relative viability ([4]; first compound 15.81 µM) of 1.08 and a relative viability ([4]; first compound 50 µM) of 1.08.
Cell Line NCI-H2347 has a relative viability ([1]; first compound 0.01 µM) of 0.317, a relative viability ([1]; first compound 0.03162 µM) of 0.264 and a relative viability ([1]; first compound 0.3162 µM) of 0.274. For the same cell line, the relative viability ([1]; first compound 1 µM) was 0.334, the relative viability ([2]; first compound 0.5 µM) was 0.598 and the relative viability ([2]; first compound 5 µM) was 0.736. For the same cell line, the relative viability ([2]; first compound 15.81 µM) was 0.641, the relative viability ([2]; first compound 50 µM) was 0.606 and the relative viability ([3]; first compound 0.01 µM) was 0.396. It also gave a relative viability ([3]; first compound 0.03162 µM) of 0.0975, a relative viability ([3]; first compound 0.3162 µM) of 0.516 and a relative viability ([3]; first compound 1 µM) of 0.31. For the same cell line, the relative viability ([4]; first compound 0.5 µM) was 1, the relative viability ([4]; first compound 5 µM) was 1.27 and the relative viability ([4]; first compound 15.81 µM) was 1.32. For the same cell line, the relative viability ([4]; first compound 50 µM) was 1.2.
Work on NCI-H2405 yielded a relative viability ([1]; first compound 0.01 µM) of 0.199, a relative viability ([1]; first compound 0.03162 µM) of 0.216 and a relative viability ([1]; first compound 0.1 µM) of 0.216. It also gave a relative viability ([1]; first compound 0.3162 µM) of 0.214, a relative viability ([1]; first compound 1 µM) of 0.213 and a relative viability ([2]; first compound 0.5 µM) of 0.765. The relative viability ([2]; first compound 5 µM) was 0.804, the relative viability ([2]; first compound 15.81 µM) was 0.757 and the relative viability ([2]; first compound 50 µM) was 0.73. The relative viability ([3]; first compound 0.01 µM) was 0.542, the relative viability ([3]; first compound 0.03162 µM) was 0.793 and the relative viability ([3]; first compound 0.1 µM) was 0.663. It also gave a relative viability ([3]; first compound 0.3162 µM) of 0.647, a relative viability ([3]; first compound 1 µM) of 0.698 and a relative viability ([4]; first compound 0.5 µM) of 1.02. For the same cell line, the relative viability ([4]; first compound 5 µM) was 1.04, the relative viability ([4]; first compound 15.81 µM) was 1.01 and the relative viability ([4]; first compound 50 µM) was 0.991.
In the case of NCI-H3122, the relative viability ([1]; first compound 0.01 µM) is reported as 0.68, the relative viability ([1]; first compound 0.03162 µM) is reported as 0.859 and the relative viability ([1]; first compound 0.1 µM) is reported as 0.857. It also gave a relative viability ([1]; first compound 0.3162 µM) of 0.852, a relative viability ([1]; first compound 1 µM) of 0.637 and a relative viability ([2]; first compound 0.5 µM) of 0.506. For the same cell line, the relative viability ([2]; first compound 5 µM) was 0.514, the relative viability ([2]; first compound 15.81 µM) was 0.447 and the relative viability ([2]; first compound 50 µM) was 0.444. For the same cell line, the relative viability ([3]; first compound 0.01 µM) was 0.0785, the relative viability ([3]; first compound 0.03162 µM) was 0.0949 and the relative viability ([3]; first compound 0.1 µM) was 0.101. It also gave a relative viability ([3]; first compound 0.3162 µM) of 0.072, a relative viability ([3]; first compound 1 µM) of 0.0984 and a relative viability ([4]; first compound 0.5 µM) of 1.06. For the same cell line, the relative viability ([4]; first compound 5 µM) was 1.13, the relative viability ([4]; first compound 15.81 µM) was 1.04 and the relative viability ([4]; first compound 50 µM) was 1.05.

From the supplement of paper PMC10307832
